Each structure is given as a SMILES string. Like-named read-outs stand apart in the source and are kept apart here.

Here are results for 15 compounds from publication PMC12166061, “Crystallographic fragment screening reveals ligand hotspots in TRIM21 PRY-SPRY domain” (Communications Chemistry, 2025).

Type in all cases: binding
For test [1], the target named is T1, His-SUMO-hTRIM21 PRY-SPRY (Homo sapiens, UniProt P19474).
T1 construct: Human TRIM21 PRY-SPRY domain (residues V287-I465, UniProt-ID: P19474); made in house; host or cells: E. coli BL21(DE3)
T1 sequence (P19474 287-465): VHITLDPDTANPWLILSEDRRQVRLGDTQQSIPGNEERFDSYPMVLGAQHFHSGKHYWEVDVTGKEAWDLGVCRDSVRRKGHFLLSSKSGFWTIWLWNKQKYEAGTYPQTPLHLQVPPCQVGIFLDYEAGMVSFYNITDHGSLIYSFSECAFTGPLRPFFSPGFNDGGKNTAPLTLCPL
The test is described as follows: SPR fragment screening, human TRIM21 PRY-SPRY. As to the method:
(§1) His-mTRIM21 PRYSPRY and His-SUMO-hTRIM21 PRY-SPRY were immobilized onto flow channels (FC) FC2, FC3, and FC4 of a Series S sensor chip NTA (Cytiva). […] Proteins (10–20 µg mL^−1 in HBS-P+) were injected at 10 µL min^−1 to achieve response levels of 3500–4300 RU for mTRIM21 and 3600–4000 RU for hTRIM21. Flow channel 1 (FC1) was used as a reference surface. Surface deactivation and nickel stripping were achieved using 1 M ethanolamine and 350 mM ethylenediaminetetraacetic acid (EDTA), respectively.
(§2) Fragment screening was conducted by injecting 500 µM fragments diluted in running buffer (HBS-P+ with 1 mM TCEP and 2% (v/v) dimethyl sulfoxide (DMSO)) over all flow-channels for 30 s at 30 µL/min^−1. To account for surface drift, 50 µM of a control compound (Suramin) was injected every 15 fragment injections, and blank injections were performed every 5 fragments. Responses were analyzed by blank subtraction, reference subtraction (FC1), solvent correction, molecular weight adjustment, and drift correction using Biacore T200 Evaluation Software v3.2.1. The binding threshold for fragment hits was set based on the Suramin-binding response level.

In test [2] the target is T2, His-mTRIM21 PRYSPRY (Mus musculus, UniProt Q62191).
T2 construct: mouse TRIM21 PRY-SPRY domain (residues V291-M470, UniProt-ID: Q62191); made in house; host or cells: E. coli BL21(DE3)
T2 sequence (Q62191 291-470): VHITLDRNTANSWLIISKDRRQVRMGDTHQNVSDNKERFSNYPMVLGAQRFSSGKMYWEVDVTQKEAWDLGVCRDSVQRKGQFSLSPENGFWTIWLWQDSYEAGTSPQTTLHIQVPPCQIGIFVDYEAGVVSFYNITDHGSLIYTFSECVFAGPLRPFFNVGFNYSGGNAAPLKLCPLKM
Put plainly: SPR fragment screening and dose response, mouse TRIM21 PRY-SPRY. The procedure: as §1, §2
The data was solvent-corrected, reference-subtracted (FC1), and blank-subtracted using the T200 Evaluation Software v3.2.1. Sensorgrams were subsequently replotted using Graphpad v.9 software.

Test [3] concerns the target T3, human TRIM21 PRY-SPRY domain (Homo sapiens, UniProt P19474).
T3 construct: Human TRIM21 PRY-SPRY domain (residues V287-I465, UniProt-ID: P19474); His6 (N, cleaved yes); SUMO (N, cleaved yes); made in house; host or cells: E. coli BL21(DE3)
Put plainly: Differential scanning fluorimetry (DSF, ΔTm), human TRIM21 PRY-SPRY domain. As to the method: (§3) Briefly, recombinant murine and human TRIM21 PRY-SPRY domain at a concentration of 8 μM were mixed with 2 mM compound in their respective SEC buffer. SYPRO Orange (5000×, Invitrogen) was added as a fluorescence probe (1 µl per mL). Subsequently, temperature-dependent protein unfolding profiles were measured using the QuantStudio™ 5 realtime PCR machine (Thermo Fisher). Excitation and emission filters were set to 465 nm and 590 nm, respectively. The temperature was raised with a step rate of 3 °C per minute. Data points were analysed with the internal software (Thermal Shift SoftwareTM Version 1.4, Thermo Fisher) using the Boltzmann equation to determine the inflection point of the transition curve.

The target of test [4] is T4, murine TRIM21 PRY-SPRY domain (Mus musculus, UniProt Q62191).
T4 construct: mouse TRIM21 PRY-SPRY domain (residues V291-M470, UniProt-ID: Q62191); made in house; host or cells: E. coli BL21(DE3)
T4 sequence (Q62191 291-470): T2 sequence (Q62191 291-470)
Put plainly: Differential scanning fluorimetry (DSF, ΔTm), mouse TRIM21 PRY-SPRY domain. The procedure: as §3
A general note: Differential scanning fluorimetry follows unfolding on heating by fluorescence.

Setting [5] is: single dose 500 µM fragment, relative response, suramin reference threshold 100 relative RU.

T3 sequence (P19474 287-465): as the sequence (P19474 287-465) above

Turning to `CCc1nnc(NC(=O)C2CCCO2)s1` (centres unmarked) [Fragment Z26823525], in test [1] (setting [5]), the “SPR hTRIM21 (Response)” value is recorded as 48.81. For the same compound, the “SPR mTRIM21 (Response)” value in test [2] (setting [5]) stood at 54.46. Also, the “Tm-Shift hTRIM21” value in test [3] (2 mM compound, 8 μM protein) is -0.4 °C. The “Tm-shift mTRIM21” value in test [4] (2 mM compound, 8 μM protein) was -0.2 °C.
Regarding `CCCn1c(NC(=O)CC)nc2ccccc21` [Fragment Z29077827], in test [1] (setting [5]), the “SPR hTRIM21 (Response)” value is 48.46. In addition, the “SPR mTRIM21 (Response)” value in test [2] (setting [5]) stood at 54.53. The “Tm-Shift hTRIM21” value in test [3] (2 mM compound, 8 μM protein) is -0.7 °C. Besides, in test [4] (2 mM compound, 8 μM protein), the “Tm-shift mTRIM21” value was -0.6 °C.
In the case of `CCCc1cc(=O)oc2cc(OC(C)=O)ccc12` [Fragment Z29634868], in test [1] (setting [5]), the “SPR hTRIM21 (Response)” value came to 95.03. In addition, the “SPR mTRIM21 (Response)” value in test [2] (setting [5]) stood at 78.57.
In the case of `CCC(=O)Nc1nc(C)cs1` [Fragment Z30820160], in test [1], the “SPR hTRIM21 (Response)” value worked out at 46.05. In test [2], the “SPR mTRIM21 (Response)” value was 15.6. For the same compound, the “Tm-Shift hTRIM21” value in test [3] is -0.2 °C. Besides, the “Tm-shift mTRIM21” value in test [4] is -0.5 °C.
Turning to `O=C(c1ccc2c(c1)OCO2)N1CCCCCC1` [Fragment Z31432226], in test [3] (2 mM compound, 8 μM protein), the “Tm-Shift hTRIM21” value was -0.8 °C. The “Tm-shift mTRIM21” value in test [4] (2 mM compound, 8 μM protein) was -0.6 °C.
In the case of `COCC(=O)NCc1ccccc1` [Fragment Z31478538], the “SPR hTRIM21 (Response)” value in test [1] (setting [5]) came out at 38.23. The “SPR mTRIM21 (Response)” value in test [2] (setting [5]) came to 37.9. Moreover, in test [3] (2 mM compound, 8 μM protein), the “Tm-Shift hTRIM21” value is -0.3 °C. In addition, in test [4] (2 mM compound, 8 μM protein), the “Tm-shift mTRIM21” value was -0.3 °C.
For `O=C(c1ccco1)N1CCN(C(=O)C2CC2)CC1` [Fragment Z32327641], the “SPR hTRIM21 (Response)” value in test [1] (setting [5]) came out at 35.48. In addition, the “SPR mTRIM21 (Response)” value in test [2] (setting [5]) is reported as 37.82. For the same compound, in test [3] (2 mM compound, 8 μM protein), the “Tm-Shift hTRIM21” value was 0 °C. Besides, the “Tm-shift mTRIM21” value in test [4] (2 mM compound, 8 μM protein) is -0.2 °C.
As to `O=C(NC1CC1)c1ccc2c(c1)OCO2` [Fragment Z32367954], the “SPR hTRIM21 (Response)” value in test [1] is listed as 68.73. In addition, in test [2], the “SPR mTRIM21 (Response)” value was found to be 59.37. In addition, the “Tm-Shift hTRIM21” value in test [3] is -0.6 °C. For the same compound, the “Tm-shift mTRIM21” value in test [4] was -0.3 °C.
Regarding `Cc1cccc(C(=O)N2CCC(C(N)=O)CC2)c1` [Fragment Z32400357], the “SPR hTRIM21 (Response)” value in test [1] (setting [5]) is recorded as 52.75. Moreover, the “SPR mTRIM21 (Response)” value in test [2] (setting [5]) was found to be 57.58. Moreover, the “Tm-Shift hTRIM21” value in test [3] (2 mM compound, 8 μM protein) is -0.1 °C. Further, the “Tm-shift mTRIM21” value in test [4] (2 mM compound, 8 μM protein) is -0.4 °C.
The like results for `CS(=O)(=O)NCCc1ccccc1` [Fragment Z45617795] were, in that order, 53.67, 50.84, -0.2 °C and -0.3 °C.
The like results for `CS(=O)(=O)NCCc1ccc(F)cc1` [Fragment Z45705015] were, in that order, 48.3, 46.34, -0.2 °C and -0.5 °C.
`CC(=O)NCCc1ccccc1C` [Fragment Z52314092]: the “SPR hTRIM21 (Response)” value in test [1] (setting [5]) is recorded as 75.76. Moreover, the “SPR mTRIM21 (Response)” value in test [2] (setting [5]) amounted to 79.62. Moreover, the “Tm-Shift hTRIM21” value in test [3] (2 mM compound, 8 μM protein) was -0.4 °C. Also, the “Tm-shift mTRIM21” value in test [4] (2 mM compound, 8 μM protein) is -0.3 °C.
As to `O=C(O)COc1ccc(F)cc1` [Fragment Z56978034], in test [1], the “SPR hTRIM21 (Response)” value is 99.74. Also, in test [2], the “SPR mTRIM21 (Response)” value amounted to 107.1. For the same compound, the “Tm-Shift hTRIM21” value in test [3] was 0 °C. For the same compound, the “Tm-shift mTRIM21” value in test [4] was -0.2 °C.
For the compound `CC(=O)Nc1ccc(CN2CCOCC2)cc1` [Fragment Z57450788], the “SPR hTRIM21 (Response)” value in test [1] (setting [5]) amounted to 43.78. For the same compound, the “SPR mTRIM21 (Response)” value in test [2] (setting [5]) was determined as 64.68. The “Tm-Shift hTRIM21” value in test [3] (2 mM compound, 8 μM protein) stood at 0.4 °C. In addition, the “Tm-shift mTRIM21” value in test [4] (2 mM compound, 8 μM protein) worked out at 0 °C.
In the case of `O=C(CN1CCCC1=O)Nc1nccs1` [Fragment Z79432418], the “SPR hTRIM21 (Response)” value in test [1] came to 61.55. The “SPR mTRIM21 (Response)” value in test [2] is reported as 63.39. Besides, the “Tm-Shift hTRIM21” value in test [3] is -0.3 °C. For the same compound, the “Tm-shift mTRIM21” value in test [4] is -0.4 °C.
